Reference: patent US8574556B2, “Antibacterial pharmaceutical composition comprising Aceriphyllum rossii extract and active compounds isolated therefrom” (Korea Research Institute of Bioscience and Biotechnology, priority 2008, dated 2013)
≈ marks a conversion by molar mass, not a printed value. Like-named read-outs stand apart in the source and are kept apart here.

Experiments:
Format in all cases: cell-based
[1] = system: Staphylococcus aureus CCARM3167(MRSA); assay: Broth microdilution MIC
Method: (§1) Test strains were cultured in a Mueller Hinton broth, and the antibacterial activities were determined by a broth microdilution assay. The test strains were grown to the mid-logarithmic phase, and diluted to a concentration of 10^5/ml with the same broth. 0.2 ml of the cells was added to each well of 96-well plates. The samples prepared in Examples 1 and 2 and Comparative Example 1 were serially diluted 2-fold, and added to the plates. The cells were incubated at 30° C. for 18 hrs, and cell growth was measured at 650 nm.
(§2) The antibacterial activity of Aceriphyllum rossii extract was determined with respect to Staphylococcus aureus, and the antibacterial activities of aceriphyllic acid A and 3-oxo-12-oleanen-27-oic acid were determined with respect to 15 different types of strains. Triclosan, oxacillin, and norfloxacin, which are commercially available antibiotics, were used for comparison.

[2] = system: Streptococcus mutans KCTC5248; assay: Broth microdilution MIC
Method: as §1, §2

[3] = system: Streptococcus mutans KCTC3289; assay: Broth microdilution MIC
Method: as §1, §2

[4] = system: Staphylococcus aureus RN4220; assay: Broth microdilution MIC
Method: as §1, §2

[5] = system: Micrococcus luteus KCTC1056; assay: Broth microdilution MIC
Method: as §1, §2

[6] = system: Streptococcus pneumoniae KCTC3932; assay: Broth microdilution MIC
Method: as §1, §2

[7] = system: Staphylococcus aureus 503; assay: Broth microdilution MIC
Method: as §1, §2

[8] = system: Enterococcus faecium KCTC3122; assay: Broth microdilution MIC
Method: as §1, §2

[9] = system: Bacillus subtilis KCTC1021; assay: Broth microdilution MIC
Method: as §1, §2

[10] = system: Staphylococcus aureus KCTC1916; assay: Broth microdilution MIC
Method: as §1, §2

[11] = system: Acinetobacter calcoaceticus KCTC2357; assay: Broth microdilution MIC
Method: as §1, §2

[12] = system: Staphylococcus aureus CCARM3519(QRSA); assay: Broth microdilution MIC
Method: as §1, §2

[13] = system: Staphylococcus aureus CCARM3505(QRSA); assay: Broth microdilution MIC
Method: as §1, §2

[14] = system: Staphylococcus aureus CCARM3506(MRSA); assay: Broth microdilution MIC
Method: as §1, §2

[15] = system: Streptococcus mutans KCTC3065; assay: Broth microdilution MIC
Method: as §1, §2

[16] = system: Staphylococcus aureus, methicillin-resistant S. aureus, and quinolone-resistant S. aureus; assay: Broth microdilution MIC, summary over S. aureus strains; details: range over Staphylococcus aureus, MRSA and QRSA strains (text summary of Table 2)
Method: as §1, §2

[17] = system: cariogenic bacteria (Streptococcus mutans); assay: Broth microdilution MIC, for cariogenic bacteria; details: Streptococcus mutans (text summary of Table 2)
Method: as §1, §2

[18] = system: Acinetobacter calcoaceticus, Micrococcus luteus, and Bacillus subtilis; assay: Broth microdilution MIC, text summary; details: range over Acinetobacter calcoaceticus, Micrococcus luteus and Bacillus subtilis (text summary of Table 2)
Method: as §1, §2

[19] = system: Propionibacterium acnes ATCC6919; assay: Broth microdilution MIC, anaerobic RCMI liquid media
Method: Propionibacterium acnes was cultured in RCMI liquid media under anaerobic conditions, and the antibacterial activities were determined by a broth microdilution assay. The test strain was pre-cultured in liquid media at 37° C. for 1 to 2 days. 15 μl of test material dissolved in DMSO was added to 3 ml of broth to a concentration of 32 ppm. The sample was serially diluted 2-fold to prepare seven samples with different concentrations. The samples were added to the pre-cultured broth to a microbial concentration of 10^5-6 cfu/ml, and cultured for 1-3 days, followed by measurement of cell growth.
as §2

[20] = Staphylococcus aureus CCARM3167(MRSA), read-out: MIC
[21] = Staphylococcus aureus CCARM3519(QRSA), read-out: MIC
[22] = Staphylococcus aureus CCARM3505(QRSA), read-out: MIC
[23] = Staphylococcus aureus CCARM3506(MRSA), read-out: MIC
[24] = Cutibacterium acnes, ATCC6919, Propionibacterium acnes (text summary of Table 2), read-out: MIC
[25] = Propionibacterium acnes ATCC6919

Row | Compound | MIC [1, 20] [µg/mL] | MIC ([2]; read-out: MIC) [µg/mL] | MIC ([3]; read-out: MIC) [µg/mL] | MIC [4] [µg/mL] | MIC ([5]; read-out: MIC) [µg/mL] | MIC ([6]; read-out: MIC) [µg/mL] | MIC ([7]; read-out: MIC) [µg/mL] | MIC ([8]; read-out: MIC) [µg/mL] | MIC ([9]; read-out: MIC) [µg/mL] | MIC ([10]; read-out: MIC) [µg/mL] | MIC ([11]; read-out: MIC) [µg/mL] | MIC [12, 21] [µg/mL] | MIC [13, 22] [µg/mL] | MIC [14, 23] [µg/mL] | MIC ([15]; read-out: MIC) [µg/mL] | MIC [16] [µg/mL] | MIC [17] [µg/mL] | MIC [18] [µg/mL] | MIC [19, 24] [µg/mL] | MIC [19, 25] [µg/mL] | further results
1 | Cc1onc(-c2ccccc2)c1C(=O)N[C@@H]1C(=O)N2[C@@H]1SC(C)(C)[C@@H]2C(=O)O [Oxacillin] | 500 (≈ 1250 µM) | 0.06 (≈ 0.149 µM) | 0.06 (≈ 0.149 µM) | 0.25 (≈ 0.623 µM) | 8 (≈ 19.9 µM) | 2 (≈ 4.98 µM) | 0.25 (≈ 0.623 µM) | 2 (≈ 4.98 µM) | 0.25 (≈ 0.623 µM) | 0.25 (≈ 0.623 µM) | 0.125 (≈ 0.311 µM) | 0.5 (≈ 1.25 µM) | 0.5 (≈ 1.25 µM) | 500 (≈ 1250 µM) | 0.06 (≈ 0.149 µM) | – | – | – | – | – | –
2 | CCn1cc(C(=O)O)c(=O)c2cc(F)c(N3CCNCC3)cc21 [Norfloxacin] | 8 (≈ 25.1 µM) | 8 (≈ 25.1 µM) | 8 (≈ 25.1 µM) | 1 (≈ 3.13 µM) | 2 (≈ 6.26 µM) | 2 (≈ 6.26 µM) | 1 (≈ 3.13 µM) | 8 (≈ 25.1 µM) | 0.25 (≈ 0.783 µM) | 0.25 (≈ 0.783 µM) | 0.25 (≈ 0.783 µM) | 125 (≈ 391 µM) | 250 (≈ 783 µM) | 1 (≈ 3.13 µM) | 8 (≈ 25.1 µM) | – | – | – | – | – | –
3 | CC1(C)CC[C@]2(C)CC[C@@]3(C(=O)O)C(=CCC4[C@@]5(C)CC[C@@H](O)[C@@](C)(CO)C5CC[C@]43C)C2C1 (stereo partly shown) [Aceriphyllic acid A, Aceriphyllic Acid A] | 4 (≈ 8.46 µM) | 2 (≈ 4.23 µM) | 4 (≈ 8.46 µM) | 4 (≈ 8.46 µM) | 2 (≈ 4.23 µM) | 32 (≈ 67.7 µM) | 2 (≈ 4.23 µM) | 8 (≈ 16.9 µM) | 1 (≈ 2.12 µM) | 4 (≈ 8.46 µM) | 2 (≈ 4.23 µM) | 4 (≈ 8.46 µM) | 4 (≈ 8.46 µM) | 4 (≈ 8.46 µM) | 2 (≈ 4.23 µM) | 2 to 4 (≈ 4.23 to 8.46 µM) | 2 to 4 (≈ 4.23 to 8.46 µM) | 1 to 2 (≈ 2.12 to 4.23 µM) | 2 (≈ 4.23 µM) | 2 (≈ 4.23 µM) | –
4 | Oc1cc(Cl)ccc1Oc1ccc(Cl)cc1Cl [Triclosan] | – | – | – | 0.006 (≈ 0.0207 µM) | – | – | – | – | – | – | – | – | – | – | – | – | – | – | – | – | MIC ([1]; Staphylococcus aureus): 0.006 µg/mL (≈ 0.0207 µM); MIC [2]: 1 µg/mL (≈ 3.45 µM); MIC [3]: 1 µg/mL (≈ 3.45 µM); MIC [5]: 1 µg/mL (≈ 3.45 µM); MIC [6]: 32 µg/mL (≈ 111 µM); MIC [7]: 0.006 µg/mL (≈ 0.0207 µM); MIC [8]: 4 µg/mL (≈ 13.8 µM); MIC [9]: 0.003 µg/mL (≈ 0.0104 µM); MIC [10]: 0.006 µg/mL (≈ 0.0207 µM); MIC [11]: 0.003 µg/mL (≈ 0.0104 µM); MIC ([12]; Staphylococcus aureus, CCARM3519): 0.006 µg/mL (≈ 0.0207 µM); MIC ([13]; Staphylococcus aureus, CCARM3505): 0.006 µg/mL (≈ 0.0207 µM); MIC ([14]; Staphylococcus aureus): 0.006 µg/mL (≈ 0.0207 µM); MIC [15]: 1 µg/mL (≈ 3.45 µM)
5 | CC1(C)CC[C@]2(C)CC[C@@]3(C(=O)O)C(=CCC4[C@@]5(C)CCC(=O)C(C)(C)C5CC[C@]43C)C2C1 (stereo partly shown) [3-Oxo-12-oleanen-27-oic acid] | 4 (≈ 8.8 µM) | 4 (≈ 8.8 µM) | 4 (≈ 8.8 µM) | 4 (≈ 8.8 µM) | 2 (≈ 4.4 µM) | 16 (≈ 35.2 µM) | 2 (≈ 4.4 µM) | > 64 | 2 (≈ 4.4 µM) | 2 (≈ 4.4 µM) | 2 (≈ 4.4 µM) | 8 (≈ 17.6 µM) | 8 (≈ 17.6 µM) | 8 (≈ 17.6 µM) | 4 (≈ 8.8 µM) | 2 to 8 (≈ 4.4 to 17.6 µM) | 4 (≈ 8.8 µM) | 1 to 2 (≈ 2.2 to 4.4 µM) | 2 (≈ 4.4 µM) | 2 (≈ 4.4 µM) | –
